Test results: US11427544B2, “Histone deacetylase 6 inhibitors and use thereof” (TAIPEI MEDICAL UNIVERSITY, priority 2016, dated 2022)
Like-named read-outs stand apart in the source and are kept apart here.

Columns and labels:
[1] = molecular target: T1, HDAC1 (Homo sapiens, UniProt Q13547); assay: Fluorogenic HDAC assay, HDAC1; format: biochemical; details: recombinant HDAC1; read-out: Enzyme IC50 HDAC1
T1 construct: purchased BPS Bioscience Corp
Source text: (§1) Of note, there are eighteen human HDACs. Eleven of them, designated as HDAC1-11, are zinc-dependent. Seven of them, designated as Sirt1-7, are NAD+-dependent.
(§2) Fluorogenic HDAC assay kits were used to assess the ability of HDAC inhibitors to inhibit deacetylation of lysine residues on a substrate by recombinant proteins HDAC1, 3, 4, 5, 6, 7, 8, 9 and Sirt1 according to the manufacturer's instructions (BPS Bioscience Corp., San Diego, Calif., USA).

[2] = test system: A549 lung cancer cell line; assay: Antiproliferative activity, A549; format: cell-based, human
Protocol: (§3) A study was conducted to evaluate the inhibitory activity of compounds of Formula (I) in inhibiting HDAC6, antiproliferative activity of test compounds in suppressing cancer cell growth, and selectivity of inhibiting HDAC6 over other HDAC isoforms.
(§4) The study was performed according to the protocol reported in Hsieh et al., Cell Death and Disease, 2014, April; 5:e1166.
(§5) Shown in Table 2 below are antiproliferative activities (measured by their half maximal concentration for inhibiting cell growth, i.e., GI50) of the test compounds against various cancer cell lines.

[3] = molecular target: T2, HDAC6 (Homo sapiens, UniProt Q9UBN7); assay: Fluorogenic HDAC assay, HDAC6; format: biochemical; details: recombinant HDAC6; read-out: Enzyme IC50 HDAC6
T2 construct: purchased BPS Bioscience Corp
T2 sequence (Q9UBN7 1-1215): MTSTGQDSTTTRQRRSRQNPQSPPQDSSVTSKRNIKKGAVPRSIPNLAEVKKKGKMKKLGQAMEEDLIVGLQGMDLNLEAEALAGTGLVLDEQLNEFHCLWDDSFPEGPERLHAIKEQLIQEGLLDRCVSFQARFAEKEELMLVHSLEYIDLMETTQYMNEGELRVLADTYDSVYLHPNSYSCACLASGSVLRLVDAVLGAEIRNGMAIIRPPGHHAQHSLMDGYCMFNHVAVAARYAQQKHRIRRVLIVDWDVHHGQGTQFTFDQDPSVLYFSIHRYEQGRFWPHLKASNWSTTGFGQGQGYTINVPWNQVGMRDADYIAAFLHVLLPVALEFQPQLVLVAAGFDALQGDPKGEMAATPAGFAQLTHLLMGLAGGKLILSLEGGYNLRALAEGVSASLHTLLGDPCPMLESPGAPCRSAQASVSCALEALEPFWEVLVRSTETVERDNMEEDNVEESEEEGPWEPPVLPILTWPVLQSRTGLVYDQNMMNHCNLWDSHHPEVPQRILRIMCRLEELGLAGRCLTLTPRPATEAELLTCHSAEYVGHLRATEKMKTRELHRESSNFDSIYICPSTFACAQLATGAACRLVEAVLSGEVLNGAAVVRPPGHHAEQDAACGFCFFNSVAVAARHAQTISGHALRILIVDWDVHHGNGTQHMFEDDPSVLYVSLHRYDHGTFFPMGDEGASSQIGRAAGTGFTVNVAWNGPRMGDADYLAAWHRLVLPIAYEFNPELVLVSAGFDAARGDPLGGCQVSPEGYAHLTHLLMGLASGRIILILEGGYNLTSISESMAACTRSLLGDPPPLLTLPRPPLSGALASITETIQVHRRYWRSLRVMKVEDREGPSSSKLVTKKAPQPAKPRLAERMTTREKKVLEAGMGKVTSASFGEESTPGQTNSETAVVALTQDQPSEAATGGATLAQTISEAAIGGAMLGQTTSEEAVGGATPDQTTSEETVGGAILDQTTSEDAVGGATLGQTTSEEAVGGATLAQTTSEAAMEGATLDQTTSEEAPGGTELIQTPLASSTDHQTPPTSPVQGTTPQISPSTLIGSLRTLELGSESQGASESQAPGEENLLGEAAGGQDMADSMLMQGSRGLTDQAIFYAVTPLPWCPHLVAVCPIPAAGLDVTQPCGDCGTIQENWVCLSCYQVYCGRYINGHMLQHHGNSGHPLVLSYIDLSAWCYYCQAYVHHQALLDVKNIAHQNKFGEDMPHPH
Source text: as §1, §2

[4] = test system: PC-3 prostate cancer cell line; assay: Antiproliferative activity, PC-3; format: cell-based, human
Protocol: as §3, §4, §5

[5] = test system: HCT116 colorectal cancer cell line; assay: Antiproliferative activity, HCT116; format: cell-based; details: Homo sapiens, HCT-116
Protocol: as §3, §4, §5

[6] = test system: HL60 leukemia cell line; assay: Antiproliferative activity, HL60; format: cell-based; details: Homo sapiens, HL-60
Protocol: as §3, §4, §5

T1 sequence (Q13547 whole entry): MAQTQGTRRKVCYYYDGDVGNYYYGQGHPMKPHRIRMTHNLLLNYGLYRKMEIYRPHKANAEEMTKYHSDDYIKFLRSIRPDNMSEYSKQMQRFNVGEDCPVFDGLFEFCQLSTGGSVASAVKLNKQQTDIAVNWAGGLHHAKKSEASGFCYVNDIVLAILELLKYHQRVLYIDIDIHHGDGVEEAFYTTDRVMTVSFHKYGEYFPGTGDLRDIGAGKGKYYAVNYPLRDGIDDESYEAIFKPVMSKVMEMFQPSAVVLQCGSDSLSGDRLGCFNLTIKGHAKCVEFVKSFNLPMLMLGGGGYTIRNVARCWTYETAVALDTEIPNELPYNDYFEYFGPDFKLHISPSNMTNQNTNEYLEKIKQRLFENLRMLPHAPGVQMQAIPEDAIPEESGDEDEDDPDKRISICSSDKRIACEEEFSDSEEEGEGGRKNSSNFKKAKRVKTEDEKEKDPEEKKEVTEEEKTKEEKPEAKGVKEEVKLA

Row | GI50 ([2]; Homo sapiens) | GI50 ([4]; Homo sapiens) | GI50 [5] | Compound | further results
1 | 1.11 ± 0.05 µM | 1.25 ± 0.02 µM |  | O=C(/C=C/c1ccc(CNc2cccc3cccnc23)cc1)NO [Compound 30, (E)-N-hydroxy-3-(4-((quinolin-8-ylamino)methyl)phenyl)acrylamide] | 
2 | > 10 µM | > 10 µM |  | O=C(/C=C/c1ccc(C(=O)Nc2cccc3ncccc23)cc1)NO [Compound 18, (E)-4-(3-(hydroxyamino)-3-oxoprop-1-enyl)-N-(quinolin-5-yl)benzamide] | 
3 | 6.32 ± 0.92 µM | > 10 µM |  | O=C(NO)c1ccc(NCc2cccc3cccnc23)cc1 [Compound 75, N-hydroxy-4-(quinolin-8-ylmethylamino)benzamide] | IC50 [1]: 2040 nM; IC50 [3]: 11 nM
4 | > 10 µM | > 10 µM |  | O=C(Cc1ccc(C(=O)Nc2cccc3cccnc23)cc1)NO [Compound 50, 4-(2-(hydroxyamino)-2-oxoethyl)-N-(quinolin-8-yl)benzamide] | 
5 | > 10 µM | > 10 µM |  | O=C(NO)c1ccc(CNc2ccc3ncccc3c2)cc1 [Compound 20, N-hydroxy-4-((quinolin-6-ylamino)methyl)benzamide] | IC50 [1]: > 100000 nM; IC50 [3]: 19 nM
6 | > 10 µM | > 10 µM |  | O=C(NO)c1ccc(C(=O)Nc2cnc3ccccc3c2)cc1 [Compound 8, N^1-hydroxy-N^4-(quinolin-3-yl)terephthalamide] | 
7 |  | 2.64 ± 0.14 µM | 620 ± 30 nM | O=C(NO)c1ccc(CNc2ccc3cccnc3c2)cc1 [Compound 42, N-hydroxy-4-((quinolin-7-ylamino)methyl)benzamide] | 
8 |  |  | 1950 ± 210 nM | O=C(NO)c1ccc(CNc2cccc3nccnc23)cc1 [Compound 66, N-hydroxy-4-((quinoxalin-5-ylamino)methyl)benzamide] | GI50 [6]: 5.58 ± 0.15 µM
9 | 2.73 ± 0.24 µM | 1.62 ± 0.2 µM |  | O=C(NO)c1ccc(CNc2cnc3ccccc3c2)cc1 [Compound 4, N-hydroxy-4-((quinolin-3-ylamino)methyl)benzamide] | IC50 [1]: 780 nM; IC50 [3]: 19.1 nM
10 | 5.89 ± 0.42 µM | 4.45 ± 0.92 µM |  | Cc1ccc2cccc(NCc3ccc(C(=O)NO)cc3)c2n1 [Compound 68, N-hydroxy-4-(((2-methylquinolin-8-yl)amino)methyl)benzamide] | IC50 [1]: 1690 nM; IC50 [3]: 12.1 nM
11 | > 10 µM | > 10 µM |  | O=C(NO)c1ccc(C(=O)Nc2cccc3cccnc23)cc1 [Compound 32, N^1-hydroxy-N^4-(quinolin-8-yl)terephthalamide] | 
12 |  | 0.85 ± 0.09 µM | 290 ± 20 nM | O=C(NO)c1ccc(CNc2ccc3ccccc3n2)cc1 [Compound 40, N-hydroxy-4-((quinolin-2-ylamino)methyl)benzamide] | 
13 |  |  | 1200 ± 140 nM | O=C(NO)c1ccc(CNc2cncc3ccccc23)cc1 [Compound 63, N-hydroxy-4-((isoquinolin-4-ylamino)methyl)benzamide] | GI50 [6]: 1.96 ± 0.16 µM
14 |  |  | 3320 ± 210 nM | O=C(NO)c1ccc(Nc2cccc3cccnc23)cc1 [Compound 59, N-hydroxy-4-(quinolin-8-ylamino)benzamide] | GI50 [6]: 6.64 ± 0.69 µM
15 | > 10 µM | > 10 µM |  | O=C(/C=C/c1ccc(CNc2ccc3ncccc3c2)cc1)NO [Compound 22, (E)-N-hydroxy-3-(4-((quinolin-6-ylamino)methyl)phenyl)acrylamide] | 
16 |  | > 10 µM | > 10000 nM | O=C(NO)c1cccc(C(=O)Nc2cccc3cccnc23)c1 [Compound 38, M-hydroxy-N^3-(quinolin-8-yl)isophthalamide] | 
17 | 4.64 ± 0.25 µM | 6.06 ± 0.4 µM |  | O=C(NO)c1ccc(CNc2cccc3cnccc23)cc1 [Compound 54, N-hydroxy-4-((isoquinolin-5-ylamino)methyl)benzamide] | 

Further lines, the compound ahead of its results:

Row | Compound | GI50 ([2]; Homo sapiens) | GI50 ([4]; Homo sapiens) | GI50 [5] | further results
18 | O=C(NO)c1ccc(CSc2cccc3cccnc23)cc1 [Compound 73, N-hydroxy-4-((quinolin-8-ylthio)methyl)benzamide] | 6.11 ± 0.69 µM | 4.29 ± 0.7 µM |  | IC50 [1]: 2200 nM; IC50 [3]: 23.4 nM
19 | O=C(/C=C/c1ccc(CNc2cnc3ccccc3c2)cc1)NO [Compound 6, (E)-N-hydroxy-3-(4-((quinolin-3-ylamino)methyl)phenyl)acrylamide] | 0.71 ± 0.01 µM | 0.38 ± 0.03 µM |  | 
20 | O=C(NO)c1ccc(CNc2cccc3ccncc23)cc1 [Compound 56, N-hydroxy-4-((isoquinolin-8-ylamino)methyl)benzamide] | 1.76 ± 0.21 µM | 4.91 ± 0.24 µM |  | 
21 | O=C(/C=C/c1ccc(C(=O)Nc2cnc3ccccc3c2)cc1)NO [Compound 10, (E)-4-(3-(hydroxyamino)-3-oxoprop-1-enyl)-N-(quinolin-3-yl)benzamide] | > 10 µM | > 10 µM |  | 
22 | O=C(/C=C/c1ccc(C(=O)Nc2ccc3ncccc3c2)cc1)NO [Compound 26, (E)-4-(3-(hydroxyamino)-3-oxoprop-1-enyl)-N-(quinolin-6-yl)benzamide] | > 10 µM | > 10 µM |  | 
23 | O=C(NO)c1ccc(CNc2nccc3ccccc23)cc1 [Compound 61, N-hydroxy-4-((isoquinolin-1-ylamino)methyl)benzamide] |  |  | 660 ± 100 nM | GI50 [6]: 1.17 ± 0.23 µM
24 | O=C(NO)c1ccc(C(=O)Nc2ccc3ncccc3c2)cc1 [Compound 24, N^1-hydroxy-N^4-(quinolin-6-yl)terephthalamide] | > 10 µM | > 10 µM |  | 
25 | O=C(/C=C/c1ccc(CNc2cccc3ncccc23)cc1)NO [Compound 14, (E)-N-hydroxy-3-(4-((quinolin-5-ylamino)methyl)phenyl)acrylamide] | 1.25 ± 0.08 µM | 0.62 ± 0.05 µM |  | 
26 | O=C(NO)c1ccc(COc2cccc3cccnc23)cc1 [Compound 71, N-hydroxy-4-((quinolin-8-yloxy)methyl)benzamide] | 7.81 ± 1.17 µM | 6.23 ± 0.32 µM |  | IC50 [3]: 11 nM
27 | O=C(NO)c1ccc(C(=O)Nc2cccc3ncccc23)cc1 [Compound 16, N1-hydroxy-N4-(quinolin-5-yl)terephthalamide] | > 10 µM | > 10 µM |  | 
28 | O=C(NO)c1ccc(CCc2cccc3cccnc23)cc1 [Compound 52, N-hydroxy-4-(2-(quinolin-8-yl)ethyl)benzamide] |  | 9.66 ± 0.07 µM | 3050 ± 90 nM | 
29 | O=C(/C=C/c1ccc(C(=O)Nc2cccc3cccnc23)cc1)NO [Compound 34, (E)-4-(3-(hydroxyamino)-3-oxoprop-1-enyl)-N-(quinolin-8-yl)benzamide] | 4.26 ± 0.07 µM | 3.51 ± 0.18 µM |  | 
30 | CN1CCc2c(c3ccccc3n2Cc2ccc(C(=O)NO)cc2)C1 [Tubastatin A, reference compound] |  |  |  | GI50 [2]: 52.2 ± 1.28 µM; GI50 [4]: 48.19 ± 0.43 µM
31 | O=C(NO)c1ccc(C(=O)NCc2cccc3cccnc23)cc1 [Compound 47, N^1-hydroxy-N^4-(quinolin-8-ylmethyl)terephthalamide] | 7.77 ± 0.03 µM | 2.08 ± 0.1 µM |  | 
32 | O=C(NO)c1cccc(CNc2cccc3cccnc23)c1 [Compound 36, N-hydroxy-3-((quinolin-8-ylamino)methyl)benzamide] |  | > 10 µM | > 10000 nM | 
33 | O=C(NO)c1ccc(CNc2ccnc3ccccc23)cc1 [Compound 44, N-hydroxy-4-((quinolin-4-ylamino)methyl)benzamide] |  |  | 3280 ± 480 nM | 
